Patent publication US10160755B2 (Plexxikon Inc., priority 2015, dated 2018)

How the values were obtained:
[1] = target: T1, FLT3-D835Y (Homo sapiens, UniProt P36888, D835Y); assay: FLT3-D835Y biochemical kinase assay (AlphaScreen)
T1 construct: purchased Invitrogen PV3967
T1 sequence (P36888 27-993 D835Y): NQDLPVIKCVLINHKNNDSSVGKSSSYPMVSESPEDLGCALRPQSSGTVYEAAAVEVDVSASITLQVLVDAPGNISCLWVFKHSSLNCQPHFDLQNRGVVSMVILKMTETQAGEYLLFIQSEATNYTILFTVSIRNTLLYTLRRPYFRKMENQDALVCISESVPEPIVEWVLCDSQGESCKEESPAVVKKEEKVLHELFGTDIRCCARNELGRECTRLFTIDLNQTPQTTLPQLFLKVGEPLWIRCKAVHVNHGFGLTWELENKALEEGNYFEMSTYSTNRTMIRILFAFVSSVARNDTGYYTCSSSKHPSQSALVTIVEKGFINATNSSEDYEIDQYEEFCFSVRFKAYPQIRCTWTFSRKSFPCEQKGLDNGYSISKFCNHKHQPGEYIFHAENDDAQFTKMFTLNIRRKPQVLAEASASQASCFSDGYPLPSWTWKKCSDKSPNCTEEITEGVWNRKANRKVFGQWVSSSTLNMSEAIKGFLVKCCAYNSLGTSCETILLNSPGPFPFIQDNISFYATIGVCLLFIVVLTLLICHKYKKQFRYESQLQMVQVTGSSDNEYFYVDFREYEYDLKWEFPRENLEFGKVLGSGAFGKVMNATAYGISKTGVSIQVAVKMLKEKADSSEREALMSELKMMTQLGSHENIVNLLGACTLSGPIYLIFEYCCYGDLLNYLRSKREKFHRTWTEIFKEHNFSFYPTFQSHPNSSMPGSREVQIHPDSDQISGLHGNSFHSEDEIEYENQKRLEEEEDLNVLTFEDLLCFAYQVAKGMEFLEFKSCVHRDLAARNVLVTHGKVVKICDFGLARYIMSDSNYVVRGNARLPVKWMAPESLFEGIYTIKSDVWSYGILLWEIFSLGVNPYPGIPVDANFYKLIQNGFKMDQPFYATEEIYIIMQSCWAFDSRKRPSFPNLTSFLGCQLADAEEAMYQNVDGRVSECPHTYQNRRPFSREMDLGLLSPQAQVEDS
In short: (§1)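 Recombinant kinase, biotin-GG(EEEEY)10EE 30 nM final, ATP 10 μM (D835Y) / 100 μM (ITD). Stop/detect: SA donor beads 20 min RT, then PY20 acceptor beads 60 min RT. AlphaScreen 580 nm signal; IC50.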

[2] = target: T2, FLT3-ITD (Homo sapiens, UniProt P36888); assay: FLT3-ITD biochemical kinase assay (AlphaScreen)
T2 construct: FLT3-ITD; Invitrogen #PV6190
T2 sequence (P36888 1-993): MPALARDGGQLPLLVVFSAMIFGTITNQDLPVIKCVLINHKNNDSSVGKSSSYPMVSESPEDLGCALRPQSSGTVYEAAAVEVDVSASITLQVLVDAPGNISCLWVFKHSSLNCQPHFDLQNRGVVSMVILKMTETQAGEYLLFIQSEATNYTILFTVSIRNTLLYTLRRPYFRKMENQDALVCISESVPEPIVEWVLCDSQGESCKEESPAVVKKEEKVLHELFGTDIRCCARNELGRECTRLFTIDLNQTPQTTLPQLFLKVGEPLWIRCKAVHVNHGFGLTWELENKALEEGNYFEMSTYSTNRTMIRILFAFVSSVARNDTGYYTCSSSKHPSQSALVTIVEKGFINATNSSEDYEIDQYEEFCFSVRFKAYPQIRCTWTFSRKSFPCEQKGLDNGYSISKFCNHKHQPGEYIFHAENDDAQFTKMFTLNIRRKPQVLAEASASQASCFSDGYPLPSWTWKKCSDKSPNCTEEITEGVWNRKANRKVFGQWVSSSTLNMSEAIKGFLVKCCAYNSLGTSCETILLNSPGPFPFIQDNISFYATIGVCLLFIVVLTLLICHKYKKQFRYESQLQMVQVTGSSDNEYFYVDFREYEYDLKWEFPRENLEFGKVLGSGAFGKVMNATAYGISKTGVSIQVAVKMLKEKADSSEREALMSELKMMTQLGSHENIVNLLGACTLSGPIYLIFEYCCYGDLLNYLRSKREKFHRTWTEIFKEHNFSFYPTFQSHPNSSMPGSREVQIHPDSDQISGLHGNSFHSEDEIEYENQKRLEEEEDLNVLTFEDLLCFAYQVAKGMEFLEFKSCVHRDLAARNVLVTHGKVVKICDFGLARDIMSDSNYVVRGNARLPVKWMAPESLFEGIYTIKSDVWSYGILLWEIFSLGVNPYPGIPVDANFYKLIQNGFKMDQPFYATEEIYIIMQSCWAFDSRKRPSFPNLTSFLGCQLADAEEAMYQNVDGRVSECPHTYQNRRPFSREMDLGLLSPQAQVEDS
In short: as §1

[3] = target: c-Kit (Homo sapiens, UniProt P10721); assay: c-Kit biochemical assay (per US 2007/0032519)
c-Kit, sequence (P10721 26-976): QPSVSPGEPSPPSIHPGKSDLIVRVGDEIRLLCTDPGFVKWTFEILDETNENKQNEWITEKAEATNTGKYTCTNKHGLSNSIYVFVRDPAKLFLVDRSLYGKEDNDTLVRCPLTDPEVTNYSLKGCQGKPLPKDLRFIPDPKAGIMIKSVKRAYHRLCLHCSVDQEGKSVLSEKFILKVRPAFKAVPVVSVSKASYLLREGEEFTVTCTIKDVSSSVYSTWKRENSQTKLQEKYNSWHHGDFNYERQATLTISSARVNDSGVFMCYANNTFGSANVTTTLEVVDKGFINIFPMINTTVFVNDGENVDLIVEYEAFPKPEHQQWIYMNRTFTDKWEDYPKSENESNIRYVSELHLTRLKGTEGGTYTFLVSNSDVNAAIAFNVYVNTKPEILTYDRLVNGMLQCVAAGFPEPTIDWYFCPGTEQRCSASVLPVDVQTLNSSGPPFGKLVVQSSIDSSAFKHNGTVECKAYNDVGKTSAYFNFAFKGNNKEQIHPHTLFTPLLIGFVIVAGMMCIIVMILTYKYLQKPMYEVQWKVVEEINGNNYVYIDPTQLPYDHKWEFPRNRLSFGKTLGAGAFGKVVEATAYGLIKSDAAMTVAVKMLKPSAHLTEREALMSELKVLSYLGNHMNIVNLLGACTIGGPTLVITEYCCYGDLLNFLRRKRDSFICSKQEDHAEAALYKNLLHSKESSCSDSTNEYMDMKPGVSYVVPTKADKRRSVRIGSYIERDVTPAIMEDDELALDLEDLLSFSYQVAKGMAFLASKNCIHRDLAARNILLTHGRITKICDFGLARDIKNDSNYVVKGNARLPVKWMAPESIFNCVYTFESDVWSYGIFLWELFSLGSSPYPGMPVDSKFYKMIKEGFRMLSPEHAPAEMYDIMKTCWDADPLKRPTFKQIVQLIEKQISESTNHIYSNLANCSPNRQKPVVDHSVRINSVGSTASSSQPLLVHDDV
In short: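 Biochemical kinase inhibition run per US 2007/0032519; values reported as binned IC50 ranges (0.0001–1 μM, 1–10 μM, 10–200 μM).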

SMILES	IC50 [1] [µM]	IC50 [2] [µM]	IC50 [3] [µM]
O=S(=O)(C1CC1)N1CCC=C(c2cnc3[nH]cc(-c4ccc5[nH]cnc5c4)c3c2)C1 [P-032, 3-(1H-benzimidazol-5-yl)-5-(1-cyclopropylsulfonyl-3,6-dihydro-2H-pyridin-5-yl)-1H-pyrrolo[2,3-b]pyridine]	1 to 10	0.0001 to 1	10 to 200
Cn1cnc2ccc(-c3c[nH]c4ncc(-c5ccc(S(=O)(=O)N6CCCC6)cc5)cc34)cc21 [P-091, 1-methyl-6-[5-(4-pyrrolidin-1-ylsulfonylphenyl)-1H-pyrrolo[2,3-b]pyridin-3-yl]benzimidazole]	0.0001 to 1	0.0001 to 1	0.0001 to 1
Nc1nc2cc(-c3c[nH]c4ncccc34)ccc2[nH]1 [P-010, 5-(1H-pyrrolo[2,3-b]pyridin-3-yl)-1H-benzimidazol-2-amine]	1 to 10	1 to 10	10 to 200
COc1cccc(-c2cnc3[nH]cc(-c4ccc5ncn(C)c5c4)c3c2)c1 [P-088, 5-(3-methoxyphenyl)-3-(3-methylbenzimidazol-5-yl)-1H-pyrrolo[2,3-b]pyridine]	0.0001 to 1	0.0001 to 1	1 to 10
c1cnc2[nH]cc(-c3ccc4[nH]ncc4c3)c2c1 [P-001, 3-(1H-indazol-5-yl)-1H-pyrrolo[2,3-b]pyridine]	1 to 10	1 to 10	0.0001 to 1
CC(=O)Nc1cccc(-c2cnc3[nH]cc(-c4ccc5ncn(C)c5c4)c3c2)c1 [P-116, N-[3-[3-(3-methylbenzimidazol-5-yl)-1H-pyrrolo[2,3-b]pyridin-5-yl]phenyl]acetamide]	0.0001 to 1	0.0001 to 1	1 to 10
Cn1cnc2ccc(-c3c[nH]c4ncc(C5=CCN(C(=O)C6CC6)C5)cc34)cc21 [P-130, cyclopropyl-[3-[3-(3-methylbenzimidazol-5-yl)-1H-pyrrolo[2,3-b]pyridin-5-yl]-2,5-dihydropyrrol-1-yl]methanone]	0.0001 to 1	0.0001 to 1	10 to 200
CS(=O)(=O)Nc1cccc(-c2cnc3[nH]cc(-c4ccc5ncn(CC(F)(F)F)c5c4)c3n2)c1 [P-069, N-[3-[7-[3-(2,2,2-trifluoroethyl)benzimidazol-5-yl]-5H-pyrrolo[2,3-b]pyrazin-2-yl]phenyl]methanesulfonamide]	0.0001 to 1	0.0001 to 1	10 to 200
COc1ccc(-c2cnc3[nH]cc(-c4ccc5[nH]cnc5c4)c3c2)cn1 [P-024, 3-(1H-benzimidazol-5-yl)-5-(6-methoxy-3-pyridyl)-1H-pyrrolo[2,3-b]pyridine]	0.0001 to 1	0.0001 to 1	1 to 10
Cn1cnc2ccc(-c3c[nH]c4ncc(-c5cccc(NS(C)(=O)=O)c5)cc34)cc21 [P-037, N-[3-[3-(3-methylbenzimidazol-5-yl)-1H-pyrrolo[2,3-b]pyridin-5-yl]phenyl]methanesulfonamide]	0.0001 to 1	0.0001 to 1	10 to 200
Cn1cnc2ccc(-c3c[nH]c4ncc(C#N)cc34)cc21 [P-020, 3-(3-methylbenzimidazol-5-yl)-1H-pyrrolo[2,3-b]pyridine-5-carbonitrile]	0.0001 to 1	0.0001 to 1	10 to 200
CS(=O)(=O)Nc1cccc(-c2cnc3[nH]cc(-c4ccc5ncsc5c4)c3c2)c1 [P-053, N-[3-[3-(1,3-benzothiazol-6-yl)-1H-pyrrolo[2,3-b]pyridin-5-yl]phenyl]methanesulfonamide]	0.0001 to 1	0.0001 to 1	1 to 10
CC(C)n1cc(-c2cnc3[nH]cc(-c4ccc5ncn(C(C)(C)C)c5c4)c3n2)cn1 [P-382, 7-(3-tert-butylbenzimidazol-5-yl)-2-(1-isopropylpyrazol-4-yl)-5H-pyrrolo[2,3-b]pyrazine]	0.0001 to 1	0.0001 to 1	0.0001 to 1
COc1cnc2[nH]cc(-c3ccc4ncn(C5CCCC5)c4c3)c2c1 [P-049, 1-cyclopentyl-6-(5-methoxy-1H-pyrrolo[2,3-b]pyridin-3-yl)benzimidazole]	0.0001 to 1	0.0001 to 1	1 to 10
CS(=O)(=O)Nc1cccc(-c2cnc3[nH]cc(-c4ccc5c(c4)N(CC(F)(F)F)CCO5)c3n2)c1 [P-087, N-[3-[7-[4-(2,2,2-trifluoroethyl)-2,3-dihydro-1,4-benzoxazin-6-yl]-5H-pyrrolo[2,3-b]pyrazin-2-yl]phenyl]methanesulfonamide]	0.0001 to 1	0.0001 to 1	10 to 200
Cn1cnc2ccc(-c3c[nH]c4ncc(-c5cccc(S(N)(=O)=O)c5)cc34)cc21 [P-044, 3-[3-(3-methylbenzimidazol-5-yl)-1H-pyrrolo[2,3-b]pyridin-5-yl]benzenesulfonamide]	0.0001 to 1	0.0001 to 1	10 to 200
CCCS(=O)(=O)Nc1cccc(-c2cnc3[nH]cc(-c4ccc5ncn(C)c5c4)c3c2)c1 [P-121, N-[3-[3-(3-methylbenzimidazol-5-yl)-1H-pyrrolo[2,3-b]pyridin-5-yl]phenyl]propane-1-sulfonamide]	0.0001 to 1	0.0001 to 1	1 to 10
Cn1cnc2ccc(-c3c[nH]c4ncc(-c5cccc(N6CCOCC6)c5)cc34)cc21 [P-095, 4-[3-[3-(3-methylbenzimidazol-5-yl)-1H-pyrrolo[2,3-b]pyridin-5-yl]phenyl]morpholine]	0.0001 to 1	0.0001 to 1	1 to 10
Cn1cnc2ccc(-c3c[nH]c4ncc(-c5cccc(C(=O)NC6CC6)c5)cc34)cc21 [P-090, N-cyclopropyl-3-[3-(3-methylbenzimidazol-5-yl)-1H-pyrrolo[2,3-b]pyridin-5-yl]benzamide]	0.0001 to 1	0.0001 to 1	10 to 200
Cc1nn(C(C)C)cc1-c1cnc2[nH]cc(-c3ccc4ncn(C(C)(C)C)c4c3)c2n1 [P-381, 7-(3-tert-butylbenzimidazol-5-yl)-2-(1-isopropyl-3-methyl-pyrazol-4-yl)-5H-pyrrolo[2,3-b]pyrazine]	0.0001 to 1	0.0001 to 1	0.0001 to 1
O=S(=O)(C1CC1)N1CC=C(c2cnc3[nH]cc(-c4ccc5[nH]cnc5c4)c3c2)CC1 [P-031, 3-(1H-benzimidazol-5-yl)-5-(1-cyclopropylsulfonyl-3,6-dihydro-2H-pyridin-4-yl)-1H-pyrrolo[2,3-b]pyridine]	1 to 10	0.0001 to 1	1 to 10
CNS(=O)(=O)c1cccc(-c2cnc3[nH]cc(-c4ccc5ncn(C)c5c4)c3c2)c1 [P-046, N-methyl-3-[3-(3-methylbenzimidazol-5-yl)-1H-pyrrolo[2,3-b]pyridin-5-yl]benzenesulfonamide]	0.0001 to 1	0.0001 to 1	10 to 200
